Results: US6403788B1, “Non-genotoxic metalloporphyrins as synthetic catalytic scavengers of reactive oxygen species” (Eukarion, Inc., priority 2000, dated 2002)

Columns and labels:
[1] = Catalase turnover assay, total hydrogen peroxide consumed before inactivation; type: biochemical; settings: to completion, 15.8 μM compound, 1582 μM hydrogen peroxide, 5 mM Na phosphate pH 7.4
Protocol: (§1) Catalase activity was measured by incubating the sample compound with hydrogen peroxide and determining the amount of hydrogen peroxide remaining after a period of time using a colorimetric peroxidase-coupled assay method. 10 μM sample compound and 100 μM hydrogen peroxide in 40 mM sodium phosphate pH 7.4 were incubated together at ambient temperature in a multi-well plate. After the desired reaction period had elapsed, 20 μl of peroxidase/ABTS reagent was added (peroxidase/ABTS reagent contained 100 μl of 50 mM Na phosphate, pH 7.4, 1 mg horseradish peroxidase (1310 U/mg) and […]). After five minutes, absorbance at 750 nm was determined. The amount of hydrogen peroxide remaining was calculated based on a standard curve. To compare rates of catalase reaction, the amount of hydrogen peroxide consumed at 20 minutes was determined (See table III). It was also of interest to determine the total number of turnovers completed by the compound before inactivation by hydrogen peroxide. This was assayed under similar conditions, except that 15.8 μM compound was combined with 1582 μM hydrogen peroxide in 5 mM Na phosphate, pH 7.4. Reactions were allowed to proceed to completion and then the amount of hydrogen peroxide remaining was determined as described above. Results showing […] in the turnover assay (nmoles hydrogen peroxide per nmole compound) are also shown in Table III.

[2] = Peroxidase activity, ABTS oxidation; type: biochemical; settings: 10 μM compound, 200 μM hydrogen peroxide, 500 μM ABTS, pH 8.1, 740 nm
Protocol: Peroxidase activity was measured by incubating 10 μM compound, 200 μM hydrogen peroxide and 500 μM ABTS in 50 mM sodium phosphate, pH 8.1. The rate of ABTS oxidation was monitored at 740 nm and initial rates (change in absorbance per min.) determined.

[3] = Superoxide dismutase activity, xanthine-xanthine oxidase / cytochrome C; type: biochemical; settings: reciprocal of IC50; xanthine 60 μM, xanthine oxidase 0.009 units/ml, cytochrome C 27.8 μM
Protocol: Superoxide Dismutase Activity was measured by incubating the compound with a superoxide generating system (Xanthine, 60 μM-Xanthine Oxidase, 0.009 units/ml) and a detector molecule (Cytochrome C, 27.8 μM). Upon reacting with a molecule of superoxide, Cytochrome C undergoes a spectrum-shift which can be detected as an increase in absorbance at 550 nm. In this assay procedure, the reactant concentrations were adjusted to give a reaction rate close to 0.1 AU/min. at 2-3 min. after the reaction began. Addition of compounds with Superoxide Dismutase activity reduce the rate of absorbance change. Compounds were assayed at several concentrations (typically at 0, 2, 4, and 8 μM) and the resulting rates were graphed and fitted to a linear regression formula. The linear regression formula was then solved to determine the concentration of compound required to reduce the reaction rate to 50% of the rate without compound present (IC50).

[4] = Catalase activity, hydrogen peroxide consumed at 20 minutes; type: biochemical; settings: over 20 minutes; 10 μM compound, 100 μM hydrogen peroxide, 40 mM sodium phosphate pH 7.4
Protocol: as §1

[5] = system: CBA/J female mice, oxazolone-induced inflammatory ear edema; assay: Delayed type hypersensitivity: oxazolone-induced ear edema; type: in vivo
Text: CBA/J female mice (Jackson Labs, Bar Harbor, ME) 7 weeks of age were pre-sensitized with 3% oxazolone (Sigma Chemical Co., St. Louis, Mo.) in 99.9% acetone, on the abdomen. After 8 days, the mice were challenged with 1.2% oxazolone topically on one ear to induce an inflammatory edema. Either Structural Formula V, Structural Formula IV at a dose of 7 nmoles/ear each, or ethanol, i.e. vehicle control (eight mice per study group), was applied topically to the ear immediately after the oxazolone challenge. Ear edema was measured by comparing the tissue water content (the wet weight minus the dry weight) of the challenged ear to that of the control ear. The percent edema (% water in the right ear-left ear) in the vehicle control was 6.5% and 2.1% and 3.9% for Structural Formula V and Structural Formula IV, respectively at a dose of 7 nmoles/ear.

| Compound | CATALASE** H2O2 Consumption [1] | PEROXIDASE Initial Rate [2] | Cyt C SOD 1/(IC50, μM) [3] [µM⁻¹] | CATALASE* Rate at 20 mins. [4] | effect on edema compared to vehicle ([5]; 7 nmoles/ear topically) | percent edema (% water in the right ear-left ear) ([5]; 7 nmoles/ear topically immediately after oxazolone challenge, vehicle control 6.5%) [%] |
| --- | --- | --- | --- | --- | --- | --- |
| CC(=O)[O-].CC(=O)[O-].CC(=O)[O-].CC(=O)[O-].CC(=O)[O-].CC[N+](C)(CC)CCNS(=O)(=O)c1ccc(-c2c3nc(c(-c4ccc(S(=O)(=O)NCC[N+](C)(CC)CC)cc4)c4ccc([n-]4)c(-c4ccc(S(=O)(=O)NCC[N+](C)(CC)CC)cc4)c4nc(c(-c5ccc(S(=O)(=O)NCC[N+](C)(CC)CC)cc5)c5ccc2[n-]5)C=C4)C=C3)cc1.O.O.[Mn+3] [Structural Formula VI, meso-tetrakis[4-(N-(2-(N,N,N-diethylmethylammonio)ethyl)aminosulfonyl)phenyl]porphyrinato diaqua-manganese (III) pentaacetate] | 42 nmole H2O2/nmole Structural Formula compound | 0.0011 change in absorbance per min. | 0.041 | 2.4 nmole H2O2/nmole Structural Formula compound | – | – |
| CC[NH+](CC)CCNS(=O)(=O)c1ccc(C2=C3C=CC4=[N+]3[Mn-]35[n]6c2ccc6C(c2ccc(S(=O)(=O)NCC[NH+](CC)CC)cc2)=C2C=CC(=[N+]23)C(c2ccc(S(=O)(=O)NCC[NH+](CC)CC)cc2)=c2ccc([n]25)=C4c2ccc(S(=O)(=O)NCC[NH+](CC)CC)cc2)cc1.[Cl-].[Cl-].[Cl-].[Cl-].[Cl-] [Structural Formula II, meso-tetrakis[4-(N-(2-(N,N-diethylammonio)ethyl)aminosulfonyl)phenyl]porphyrinato diaqua-manganese (III) pentachloride] | 42.4 nmole H2O2/nmole Structural Formula compound | 0.0151 change in absorbance per min. | 0.034 | 1.6 nmole H2O2/nmole Structural Formula compound | – | – |
| CC[NH+](CC)CCNS(=O)(=O)c1c(C)cc(C)c(C2=C3C=CC4=[N+]3[Mn-]35[n]6c2ccc6C(c2c(C)cc(C)c(S(=O)(=O)NCC[NH+](CC)CC)c2C)=C2C=CC(=[N+]23)C(c2c(C)cc(C)c(S(=O)(=O)NCC[NH+](CC)CC)c2C)=c2ccc([n]25)=C4c2c(C)cc(C)c(S(=O)(=O)NCC[NH+](CC)CC)c2C)c1C.[Cl-].[Cl-].[Cl-].[Cl-].[Cl-] [Structural Formula IV, meso-tetrakis[3-(N-(2-(N,N-diethylammonio)ethyl)aminosulfonyl)-2,4,6-trimethylphenyl]porphyrinato diaqua-manganese (III) pentachloride] | 189.9 nmole H2O2/nmole Structural Formula compound | 0.021 change in absorbance per min. | 0.043 | 1.0 nmole H2O2/nmole Structural Formula compound | effective in reducing the percentage of edema | 3.9 |
| O=C(O)c1ccc(-c2c3nc(c(-c4ccc(C(=O)O)cc4)c4ccc([n-]4)c(-c4ccc(C(=O)O)cc4)c4nc(c(-c5ccc(C(=O)O)cc5)c5ccc2[n-]5)C=C4)C=C3)cc1.[Mn+3] [MnTBAP, Mn(III) tetrakis (4-benzoic acid) porphyrin, reference compound] | 38.5 nmole H2O2/nmole Structural Formula compound | 0.0304 change in absorbance per min. | 0.015 | 0.4 nmole H2O2/nmole Structural Formula compound | – | – |
| CC(=O)[O-].CC(=O)[O-].CC(=O)[O-].CC(=O)[O-].CC(=O)[O-].CC[N+](C)(CC)CCNS(=O)(=O)c1c(C)cc(C)c(-c2c3nc(c(-c4c(C)cc(C)c(S(=O)(=O)NCC[N+](C)(CC)CC)c4C)c4ccc([n-]4)c(-c4c(C)cc(C)c(S(=O)(=O)NCC[N+](C)(CC)CC)c4C)c4nc(c(-c5c(C)cc(C)c(S(=O)(=O)NCC[N+](C)(CC)CC)c5C)c5ccc2[n-]5)C=C4)C=C3)c1C.O.O.[Mn+3] [Structural Formula VII, meso-tetrakis[3-(N-(2-(N,N,N-diethylmethylammonio)ethyl)aminosulfonyl)-2,4,6-trimethylphenyl]porphyrinato diaqua-manganese (III) pentaacetate] | 166.6 nmole H2O2/nmole Structural Formula compound | 0.0025 change in absorbance per min. | 0.013 | 1.3 nmole H2O2/nmole Structural Formula compound | – | – |
| CC[NH+](CC)CCNS(=O)(=O)c1ccc(-c2c3nc(c(-c4ccc(S(=O)(=O)NCC[NH+](CC)CC)cc4)c4ccc([n-]4)c(-c4ccc(S(=O)(=O)NCC[NH+](CC)CC)cc4)c4nc(c(-c5ccc(S(=O)(=O)NCC[NH+](CC)CC)cc5)c5ccc2[n-]5)C=C4)C=C3)cc1.O.O.[Cl-].[Cl-].[Cl-].[Cl-].[Cl-].[Fe+3] [Structural Formula III, meso-tetrakis[4-(N-(2-(N,N-diethylammonio)ethyl)aminosulfonyl)phenyl]porphyrinato diaqua-iron (III) pentachloride] | 4.7 nmole H2O2/nmole Structural Formula compound | 0.0363 change in absorbance per min. | 0.045 | 0.3 nmole H2O2/nmole Structural Formula compound | – | – |
